Measured values published in the supplement of paper PMC11061612.

Legend:
Test in all cases: Bliss excess, mean over the matrix (fraction); higher = more synergy
[1] = test system: KM12 (Colorectal Carcinoma)
Summary of the method: (§1)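 Cell lines in DMEM/F12 or RPMI with 10% FBS were plated in 1536-well plates, held 24 hours at 37°C, 5% CO2, then given two-drug dose matrices for 72 hours (DMSO typically 0.2%). Viability was read by CellTiter-Glo 2.0 luminescence and scaled as inhibition from 0 (vehicle wells) to 1 (blank wells). Combination Emax is the second-highest inhibition in the matrix; Bliss excess is observed combination effect minus expected EA + EB − EA·EB, EA and EB being single-agent effects.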

[2] = test system: SW1417 (Colorectal Carcinoma)
Summary of the method: as §1

[3] = test system: COLO-678 (Colorectal Carcinoma)
Summary of the method: as §1

[4] = test system: PANC-08-13 (Pancreatic Carcinoma)
Summary of the method: as §1

[5] = test system: KYSE-180 (Esophageal Squamous Cell Carcinoma)
Summary of the method: as §1

[6] = test system: WIL2-NS (Non-Cancerous)
Summary of the method: as §1

[7] = test system: BFTC-905 (Bladder Carcinoma)
Summary of the method: as §1

[8] = test system: NCI-H1792 (Lung Adenocarcinoma)
Summary of the method: as §1

[9] = test system: K-562 (Chronic Myelogenous Leukemia)
Summary of the method: as §1

[10] = test system: DiFi (Colorectal Carcinoma)
Summary of the method: as §1

[11] = test system: TOV-112D (Ovarian Carcinoma)
Summary of the method: as §1

[12] = test system: EVSA-T (Breast Carcinoma)
Summary of the method: as §1

[13] = test system: MKN28 (Gastric Carcinoma)
Summary of the method: as §1

[14] = test system: GR-ST (B-Lymphoblastic Leukemia)
Summary of the method: as §1

[15] = test system: CHP-212 (Neuroblastoma)
Summary of the method: as §1

[16] = test system: HL-60 (Acute Myeloid Leukemia)
Summary of the method: as §1

[17] = test system: MOLT-16 (T-Lymphoblastic Leukemia)
Summary of the method: as §1

[18] = test system: TC-71 (Ewing's Sarcoma)
Summary of the method: as §1

[19] = test system: KARPAS-45 (T-Lymphoblastic Leukemia)
Summary of the method: as §1

Row | SMILES | Bliss excess [1] | Bliss excess [2] | Bliss excess [3] | Bliss excess [4] | Bliss excess [5] | Bliss excess [6] | Bliss excess [7] | Bliss excess [8] | Bliss excess [9] | Bliss excess [10] | Bliss excess [11] | Bliss excess [12] | Bliss excess [13] | Bliss excess [14] | Bliss excess [15] | Bliss excess [16] | Bliss excess [17] | Bliss excess [18] | Bliss excess [19]
1 | CCc1c2c(nc3ccc(O)cc13)-c1cc3c(c(=O)n1C2)COC(=O)[C@]3(O)CC [SN-38] + O=C(c1cc(Cc2n[nH]c(=O)c3ccccc23)ccc1F)N1CCN(C(=O)C2CC2)CC1 [Olaparib] (first compound max 0.3 µM, 7x7, partner max 10 µM) | -0.0102 | 0.0174 | 0.0487 | -0.0202 | 0.0458 | 0.0736 | 0.0451 | 0.0361 | 0.0222 | 0.0423 | 0.0453 | 0.0738 | 0.0385 | -0.05 | – | – | – | – | –
2 | Cc1cc2ncnn2cc1Nc1ncc2c(n1)n(C1CCOCC1)c(=O)n2C [AZD7648] + CCN(CCO)CCCOc1ccc2c(Nc3cc(CC(=O)Nc4cccc(F)c4)[nH]n3)ncnc2c1 [AZD2811] (first compound max 10 µM, 7x7, partner max 1 µM) | 0.004 | -0.106 | -0.0119 | 0.0006 | 0.0029 | 0.0024 | 0.0469 | 0.0321 | 0.0127 | 0.005 | 0.0263 | 0.0122 | 0.0124 | -0.0705 | -0.0162 | -0.0639 | 0.0058 | -0.0301 | -0.0341
3 | COc1cccc(OCCCN)c1-c1cc(Nc2cnc(C#N)cn2)n[nH]1 [Prexasertib] + Cc1cc2ncnn2cc1Nc1ncc2c(n1)n(C1CCOCC1)c(=O)n2C [AZD7648] (first compound max 1 µM, 7x7, partner max 10 µM) | -0.0399 | 0.001 | -0.0384 | -0.0089 | -0.0431 | -0.0285 | -0.0492 | -0.0227 | -0.0282 | -0.0046 | -0.0241 | 0.017 | -0.0172 | -0.0363 | -0.0467 | 0.0133 | 0.0121 | -0.0419 | -0.0044
4 | CN(C)CCCOc1ccc(-c2ccc3ncc4c(c3c2)n(C2CCOCC2)c(=O)n4C)cn1 [AZD0156] + C[C@@H]1COCCN1C2=NC(=NC(=C2)C3(CC3)[S@](=N)(=O)C)C4=C5C=CNC5=NC=C4 [AZD6738] (first compound max 1 µM, 7x7, partner max 10 µM) | 0.0161 | -0.0019 | -0.0169 | -0.0376 | 0.0762 | 0.0131 | 0.0463 | 0.0254 | -0.0079 | 0.0174 | 0.0136 | 0.0081 | -0.0092 | -0.0006 | -0.0047 | -0.0159 | -0.0399 | 0.069 | 0.0333
5 | COc1cccc(OCCCN)c1-c1cc(Nc2cnc(C#N)cn2)n[nH]1 [Prexasertib] + CN(C)CCCOc1ccc(-c2ccc3ncc4c(c3c2)n(C2CCOCC2)c(=O)n4C)cn1 [AZD0156] (first compound max 1 µM, 7x7, partner max 1 µM) | -0.0095 | -0.0473 | -0.036 | -0.027 | 0.0022 | -0.0281 | 0.0125 | -0.0104 | -0.0217 | -0.0503 | 0.0332 | -0.0133 | -0.0286 | -0.0287 | -0.0377 | -0.0026 | 0.05 | 0.026 | -0.0485
6 | Cc1cc2ncnn2cc1Nc1ncc2c(n1)n(C1CCOCC1)c(=O)n2C [AZD7648] + C=CCn1c(=O)c2cnc(Nc3ccc(N4CCN(C)CC4)cc3)nc2n1-c1cccc(C(C)(C)O)n1 [AZD1775] (first compound max 10 µM, partner max 1 µM) | -0.0388 | -0.0328 | -0.0224 | -0.0266 | 0.0302 | -0.0038 | 0.022 | -0.0274 | 0.0017 | -0.0013 | -0.0325 | -0.024 | 0.0495 | -0.117 | 0.0249 | -0.0457 | 0.0163 | 0.055 | 0.0367
7 | COc1cccc(OCCCN)c1-c1cc(Nc2cnc(C#N)cn2)n[nH]1 [Prexasertib] + C[C@@H]1COCCN1C2=NC(=NC(=C2)C3(CC3)[S@](=N)(=O)C)C4=C5C=CNC5=NC=C4 [AZD6738] (first compound max 1 µM, 7x7, partner max 10 µM) | -0.0494 | 0.0572 | -0.0346 | -0.0421 | -0.0702 | -0.0021 | 0.0096 | -0.0129 | -0.0435 | -0.0794 | 0.0177 | 0.0094 | 0.0579 | -0.0845 | -0.0776 | -0.0289 | 0.0291 | -0.0164 | -0.0117
8 | CN(C)CCCOc1ccc(-c2ccc3ncc4c(c3c2)n(C2CCOCC2)c(=O)n4C)cn1 [AZD0156] + C=CCn1c(=O)c2cnc(Nc3ccc(N4CCN(C)CC4)cc3)nc2n1-c1cccc(C(C)(C)O)n1 [AZD1775] (first compound max 1 µM, partner max 1 µM) | -0.0223 | -0.0213 | -0.0197 | -0.0586 | -0.0451 | 0.0135 | -0.0022 | -0.0041 | -0.0269 | -0.0013 | 0.0039 | -0.0618 | -0.0875 | -0.0229 | -0.0165 | -0.0177 | -0.0108 | 0.0685 | -0.0182
9 | COc1cc2c(cc1OCCCCCOc1cc3c(cc1OC)C(=O)N1C=C(C)C[C@H]1C=N3)N=C[C@@H]1CC(C)=CN1C2=O [SG3199] + O=C(c1cc(Cc2n[nH]c(=O)c3ccccc23)ccc1F)N1CCN(C(=O)C2CC2)CC1 [Olaparib] (first compound max 0.001 µM, 7x7, partner max 10 µM) | -0.0301 | -0.0472 | -0.0144 | -0.0319 | -0.0177 | -0.0239 | -0.054 | -0.0479 | -0.0041 | -0.0495 | -0.0167 | -0.0094 | -0.0469 | -0.0339 | 0.0046 | -0.034 | 0.0336 | -0.0224 | -0.0076
10 | Cc1cc2ncnn2cc1Nc1ncc2c(n1)n(C1CCOCC1)c(=O)n2C [AZD7648] + CN(C)CCCOc1ccc(-c2ccc3ncc4c(c3c2)n(C2CCOCC2)c(=O)n4C)cn1 [AZD0156] (first compound max 10 µM, 7x7, partner max 1 µM) | 0.0312 | -0.0262 | -0.0231 | -0.0359 | 0.0126 | -0.0264 | 0.0314 | 0.0149 | -0.0026 | -0.0119 | 0.0307 | -0.0126 | -0.0127 | -0.0687 | 0.0036 | 0.0176 | 0.0841 | 0.0438 | -0.0274
11 | Cc1cc2ncnn2cc1Nc1ncc2c(n1)n(C1CCOCC1)c(=O)n2C [AZD7648] + C[C@@H]1COCCN1C2=NC(=NC(=C2)C3(CC3)[S@](=N)(=O)C)C4=C5C=CNC5=NC=C4 [AZD6738] (first compound max 10 µM, 7x7, partner max 10 µM) | 0.0057 | 0.0175 | -0.0346 | 0.0227 | 0.0394 | 0.0015 | 0.0081 | -0.0047 | -0.0096 | 0.0639 | 0.0024 | 0.0622 | -0.0081 | -0.116 | -0.0035 | -0.0079 | -0.0368 | 0.041 | 0.0129
12 | CCN(CCO)CCCOc1ccc2c(Nc3cc(CC(=O)Nc4cccc(F)c4)[nH]n3)ncnc2c1 [AZD2811] + C[C@@H]1COCCN1C2=NC(=NC(=C2)C3(CC3)[S@](=N)(=O)C)C4=C5C=CNC5=NC=C4 [AZD6738] (first compound max 1 µM, 7x7, partner max 10 µM) | -0.0709 | -0.0709 | -0.0034 | -0.0312 | -0.0184 | 0.0036 | -0.0462 | -0.0577 | -0.0494 | -0.0331 | 0.0433 | -0.0263 | -0.0513 | -0.0298 | -0.0822 | -0.0776 | -0.0021 | -0.0335 | -0.0944
13 | CCN(CCO)CCCOc1ccc2c(Nc3cc(CC(=O)Nc4cccc(F)c4)[nH]n3)ncnc2c1 [AZD2811] + O=C(c1cc(Cc2n[nH]c(=O)c3ccccc23)ccc1F)N1CCN(C(=O)C2CC2)CC1 [Olaparib] (first compound max 1 µM, 7x7, partner max 10 µM) | 0.0068 | -0.0456 | -0.0223 | -0.0087 | 0.0207 | -0.033 | -0.0029 | -0.0029 | 0.0216 | -0.0153 | 0.0355 | 0.0242 | -0.0319 | -0.0358 | -0.0249 | -0.082 | 0.0395 | -0.0772 | -0.115
14 | CCN(CCO)CCCOc1ccc2c(Nc3cc(CC(=O)Nc4cccc(F)c4)[nH]n3)ncnc2c1 [AZD2811] + C=CCn1c(=O)c2cnc(Nc3ccc(N4CCN(C)CC4)cc3)nc2n1-c1cccc(C(C)(C)O)n1 [AZD1775] (first compound max 1 µM, partner max 1 µM) | -0.0092 | -0.0654 | -0.0002 | -0.0319 | 0.0089 | 0.0117 | 0.0468 | -0.0328 | 0.0526 | 0.0322 | 0.105 | -0.0073 | -0.0954 | -0.0338 | -0.0625 | -0.0445 | -0.0255 | 0.0744 | -0.0766
15 | C=CCn1c(=O)c2cnc(Nc3ccc(N4CCN(C)CC4)cc3)nc2n1-c1cccc(C(C)(C)O)n1 [AZD1775] + O=C(c1cc(Cc2n[nH]c(=O)c3ccccc23)ccc1F)N1CCN(C(=O)C2CC2)CC1 [Olaparib] (first compound max 1 µM, partner max 10 µM) | -0.0201 | -0.0605 | -0.012 | -0.0095 | 0.0253 | -0.0087 | -0.0292 | -0.0261 | -0.0678 | -0.0145 | -0.0139 | 0.0622 | 0.0046 | -0.0334 | -0.0383 | -0.0554 | 0.0004 | -0.0626 | -0.0302
16 | COc1cccc(OCCCN)c1-c1cc(Nc2cnc(C#N)cn2)n[nH]1 [Prexasertib] + O=C(c1cc(Cc2n[nH]c(=O)c3ccccc23)ccc1F)N1CCN(C(=O)C2CC2)CC1 [Olaparib] (first compound max 1 µM, 7x7, partner max 10 µM) | -0.0192 | -0.0459 | -0.0157 | -0.076 | -0.0371 | -0.0174 | -0.0751 | -0.0161 | -0.105 | -0.0265 | 0.0277 | -0.0312 | -0.133 | -0.111 | -0.0592 | -0.0781 | -0.0198 | -0.017 | -0.0081
